A value given as a limit tells only on which side of the number the result lay.

Tested on in the first series: not listed separately
Briefly: Permeability in artificial phospholipid bilayer membrane at pH 7.05. Type of series: ADME. The following applies: not told, read-out: permeability.
Consider `O=C(/C=C/c1ccc(Cl)c(Cl)c1)NCCCCCN1CCC(C(=O)Nc2ccc(Cl)c(Cl)c2)CC1`, for which the Papp was found to be 9 ×10⁻⁶ cm/s.

In a further series the target is T1, Glycogen phosphorylase, liver form (Homo sapiens, UniProt P06737).
T1 sequence (P06737 whole entry): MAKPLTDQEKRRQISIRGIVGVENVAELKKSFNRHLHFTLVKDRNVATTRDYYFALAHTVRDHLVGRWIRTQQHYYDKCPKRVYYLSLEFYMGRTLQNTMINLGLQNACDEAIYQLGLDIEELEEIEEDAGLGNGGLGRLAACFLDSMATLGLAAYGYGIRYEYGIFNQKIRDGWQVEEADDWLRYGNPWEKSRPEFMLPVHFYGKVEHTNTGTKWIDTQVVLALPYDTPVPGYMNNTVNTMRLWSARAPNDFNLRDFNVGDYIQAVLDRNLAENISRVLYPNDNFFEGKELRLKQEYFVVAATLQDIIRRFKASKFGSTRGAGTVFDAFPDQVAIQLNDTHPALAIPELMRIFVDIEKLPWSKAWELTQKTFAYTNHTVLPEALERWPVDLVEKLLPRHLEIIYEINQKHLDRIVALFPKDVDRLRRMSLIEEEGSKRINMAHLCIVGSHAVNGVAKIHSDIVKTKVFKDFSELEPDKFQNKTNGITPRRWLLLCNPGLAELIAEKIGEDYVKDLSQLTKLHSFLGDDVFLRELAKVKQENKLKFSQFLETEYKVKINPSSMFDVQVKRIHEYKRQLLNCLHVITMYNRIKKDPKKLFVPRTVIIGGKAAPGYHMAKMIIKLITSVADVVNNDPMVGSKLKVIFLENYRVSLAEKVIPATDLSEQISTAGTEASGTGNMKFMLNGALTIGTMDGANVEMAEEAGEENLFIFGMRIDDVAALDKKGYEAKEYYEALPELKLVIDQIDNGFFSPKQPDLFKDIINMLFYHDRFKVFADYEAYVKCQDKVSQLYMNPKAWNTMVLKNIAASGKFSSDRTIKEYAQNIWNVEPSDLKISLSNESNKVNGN
Kind of series: Inhibition of human liver GPa in presence of glucose.
Details: not given
For `O=C(/C=C/c1ccc(Cl)c(Cl)c1)NCCCCCN1CCN(C(=O)Nc2ccc3c(c2)OCO3)CC1`, the IC50 (as a rule, the point on the concentration scale where inhibition reaches its midpoint) is 70 µM.
For `O=C(/C=C/c1ccc(Cl)c(Cl)c1)NCCCCCCN1CCN(C(=O)Nc2ccc(Cl)c(Cl)c2)CC1`, the IC50 came out at 0.44 µM.
Same read-out and setting: with `COc1cccc(NC(=O)N2CCN(CCCCCNC(=O)/C=C/c3ccc(Cl)c(Cl)c3)CC2)c1` the figure was 100 µM; with `O=C(/C=C/c1ccc(Cl)c(Cl)c1)NCCCCCN1CCCN(C(=O)Nc2ccc(Cl)cc2)CC1`, 51 µM; with `COc1cccc(NC(=O)N2CCCN(CCCCCNC(=O)/C=C/c3ccc(Cl)c(Cl)c3)CC2)c1`, 10 µM.
For the compound `Cc1ccc(NC(=O)N2CCN(CCCCCNC(=O)/C=C/c3ccc(Cl)c(Cl)c3)CC2)cc1`, the IC50 is 100 µM.
Same read-out and setting: with `O=C(/C=C/c1ccc(Cl)c(Cl)c1)NCCCCCN1CCCN(C(=O)Nc2ccc(F)c(Cl)c2)CC1` the figure was 0.72 µM.
On the same count and under the same terms, with `O=C(/C=C/c1ccccc1)NCCCCN1CCCN(C(=O)Nc2ccc(Cl)c(Cl)c2)CC1` the figure was 0.17 µM; with `O=C(/C=C/c1ccc(Cl)c(Cl)c1)NCCCCN1CCN(C(=O)Nc2ccc(Cl)c(Cl)c2)CC1`, 0.71 µM; with `O=C(/C=C/c1ccc(Cl)c(Cl)c1)NCCCCCN1CCN(C(=O)Nc2ccc(Cl)c(Cl)c2)CC1`, 0.94 µM.
On to `O=C(/C=C/c1ccc(Cl)c(Cl)c1)NCCCCCN1CCN(C(=O)Nc2ccc(Cl)c(C(F)(F)F)c2)CC1`, for which the half-inhibitory concentration (IC50) was determined as 51 µM.
Consider `O=C(/C=C/c1ccc(Cl)c(Cl)c1)NCCCCCN1CCN(C(=O)Nc2ccc(Cl)cc2)CC1`, for which the IC50 is 100 µM.
On the same count and under the same terms, the same measure for `O=C(/C=C/c1ccc(Cl)c(Cl)c1)NCCCCCN1CCCN(C(=O)Nc2ccc(Cl)c(C(F)(F)F)c2)CC1`: 1.6 µM; for `O=C(/C=C/c1ccc(Cl)c(Cl)c1)NCCN1CCCN(C(=O)Nc2ccc(Cl)c(Cl)c2)CC1`: 100 µM; for `O=C(/C=C/c1ccc(Cl)c(Cl)c1)NCCCN1CCN(C(=O)Nc2ccc(Cl)c(Cl)c2)CC1`: 0.32 µM.
With `Cc1ccc(NC(=O)N2CCCN(CCCCCNC(=O)/C=C/c3ccc(Cl)c(Cl)c3)CC2)cc1`, the IC50 was 100 µM.
Same read-out and setting: the same measure for `O=C(/C=C/c1ccc(Cl)c(Cl)c1)NCCN1CCN(C(=O)Nc2ccc(Cl)c(Cl)c2)CC1`: 90 µM; for `O=C(/C=C/c1ccc(Cl)c(Cl)c1)NCCCCCN1CCCN(C(=O)Nc2cccc(Cl)c2)CC1`: 1.3 µM.
With `O=C(/C=C/c1ccc(Cl)c(Cl)c1)NCCCCCN1CCN(C(=O)Nc2cccc(Cl)c2)CC1`, the IC50 stood at 51 µM.
Same read-out and setting: the same measure for `O=C(/C=C/c1ccc(Cl)c(Cl)c1)NCCCCCN1CCC(C(=O)Nc2ccc(Cl)c(Cl)c2)CC1`: 0.63 µM.
With `O=C(/C=C/c1ccc(Cl)c(Cl)c1)NCCCCCN1CCCN(C(=O)Nc2ccc(Cl)c(Cl)c2)CC1`, the IC50 stood at 0.47 µM.
Same read-out and setting: the same measure for `O=C(/C=C/c1ccc(Cl)c(Cl)c1)NCCCCCN1CCN(C(=O)Nc2ccc(F)c(Cl)c2)CC1`: 0.98 µM; for `O=C(/C=C/c1ccc(Cl)c(Cl)c1)NCCCCCCN1CCCN(C(=O)Nc2ccc(Cl)c(Cl)c2)CC1`: 24 µM.

In the next series the target is T1, Glycogen phosphorylase, liver form. Kind of series: Inhibition of human liver GPa in absence of glucose.
Details: not given
In turn, `O=C(/C=C/c1ccc(Cl)c(Cl)c1)NCCCCCN1CCN(C(=O)Nc2ccc(Cl)c(Cl)c2)CC1` gave an IC50 greater than 20 µM.

The values above are taken from ChEMBL document CHEMBL1139703, “Synthesis and structure-activity relationships of 3-phenyl-2-propenamides as inhibitors of glycogen phosphorylase a” (Bioorg Med Chem Lett, 2006).
